# Source: ChEMBL document CHEMBL4346752, “Discovery and evaluation of novel nitrodihydroimidazooxazoles as promising anti-tuberculosis agents” (Bioorg Med Chem Lett, 2019)
# Tested on: Mycobacterium tuberculosis variant bovis
# Test: Antimycobacterial activity against Mycobacterium bovis ATCC 35737 assessed as reduction in bacterial cell growth incubated for 8 days by alamar blue staining based assay
# Format: functional
# Conditions: ATCC 35737, 192 h
row,SMILES,MIC [µg/mL]
1,C[C@]1(COc2ccc(N3CCC(Oc4ccc(OC(F)(F)F)cc4)CC3)cc2)Cn2cc([N+](=O)[O-])nc2O1,≤ 0.0625
2,C[C@]1(CN2CCc3oc(-c4ccc(F)c(F)c4)nc3C2)Cn2cc([N+](=O)[O-])nc2O1,0.25
3,C[C@]1(CN2CCc3oc(-c4ccc(F)cc4)cc3C2)Cn2cc([N+](=O)[O-])nc2O1,1
4,C[C@]1(CN2CCn3cc(-c4ccc(F)cc4)nc3C2)Cn2cc([N+](=O)[O-])nc2O1,1
5,C[C@]1(CN2CCc3nc(-c4cc(F)ccc4Cl)ccc3C2)Cn2cc([N+](=O)[O-])nc2O1,≤ 0.0625
6,C[C@]1(CN2CCc3nc(-c4cc(F)cc(F)c4)ccc3C2)Cn2cc([N+](=O)[O-])nc2O1,≤ 0.0625
7,C[C@]1(CN2CCc3nc(-c4ccc(F)c(Cl)c4)ccc3C2)Cn2cc([N+](=O)[O-])nc2O1,≤ 0.0625
8,C[C@]1(CN2CCc3nc(N4CCOCC4)ccc3C2)Cn2cc([N+](=O)[O-])nc2O1,0.5
9,C[C@]1(CN2CCc3nc(-c4ccc(F)cc4)nnc3C2)Cn2cc([N+](=O)[O-])nc2O1,0.5
10,C[C@]1(CN2CCc3nc(-c4ccc(C#N)cc4)ccc3C2)Cn2cc([N+](=O)[O-])nc2O1,2
11,C[C@]1(CN2CCc3sc(-c4ccc(F)cc4)nc3C2)Cn2cc([N+](=O)[O-])nc2O1,0.25
12,C[C@]1(CN2CCc3oc(-c4ccc(F)cc4)nc3C2)Cn2cc([N+](=O)[O-])nc2O1,0.5
13,C[C@]1(CN2CCc3nc(-c4ccccc4)ccc3C2)Cn2cc([N+](=O)[O-])nc2O1,0.25
14,C[C@]1(CN2CCn3cc(-c4ccc(F)c(F)c4)nc3C2)Cn2cc([N+](=O)[O-])nc2O1,1
15,C[C@]1(CN2CCc3nc(-c4ccccc4F)ccc3C2)Cn2cc([N+](=O)[O-])nc2O1,0.125
16,C[C@]1(CN2CCc3nc(-c4ccccc4)ncc3C2)Cn2cc([N+](=O)[O-])nc2O1,1
17,C[C@]1(CN2CCc3nc(-c4ccc(Cl)cc4F)ccc3C2)Cn2cc([N+](=O)[O-])nc2O1,≤ 0.0625
18,C[C@]1(CN2CCn3nc(-c4ccc(F)c(F)c4)nc3C2)Cn2cc([N+](=O)[O-])nc2O1,1
19,C[C@]1(CN2CCc3nc(-c4cc(F)ccc4F)ccc3C2)Cn2cc([N+](=O)[O-])nc2O1,≤ 0.0625
20,C[C@]1(CN2CCc3nc(N4CCC(F)(F)CC4)ccc3C2)Cn2cc([N+](=O)[O-])nc2O1,0.5
21,C[C@]1(CN2CCc3nc(-c4ccc(Cl)cc4)ccc3C2)Cn2cc([N+](=O)[O-])nc2O1,2

row,SMILES,MIC [µg/mL]
1,C[C@]1(CN2CCc3nc(N4CCCCC4)ccc3C2)Cn2cc([N+](=O)[O-])nc2O1,0.5
2,C[C@]1(CN2CCc3nc(C(F)(F)F)ccc3C2)Cn2cc([N+](=O)[O-])nc2O1,2
3,C[C@]1(CN2CCc3nc(-c4ccc(F)cc4)ccc3C2)Cn2cc([N+](=O)[O-])nc2O1,≤ 0.0625
4,C[C@]1(CN2CCc3nc(-c4cc(F)c(F)c(F)c4)ccc3C2)Cn2cc([N+](=O)[O-])nc2O1,≤ 0.0625
5,C[C@]1(CN2CCc3nc(-c4cc(Cl)ccc4F)ccc3C2)Cn2cc([N+](=O)[O-])nc2O1,≤ 0.0625
6,C[C@]1(CN2CCc3nc(-c4ccc(F)c(F)c4)oc3C2)Cn2cc([N+](=O)[O-])nc2O1,0.125
7,C[C@]1(CN2CCc3nc(-c4ccc(OC(F)(F)F)cc4)ccc3C2)Cn2cc([N+](=O)[O-])nc2O1,8
8,C[C@]1(CN2CCc3nc(C4CCOCC4)ccc3C2)Cn2cc([N+](=O)[O-])nc2O1,2
9,C[C@]1(CN2CCc3nc(-c4ccc(Cl)c(F)c4)ccc3C2)Cn2cc([N+](=O)[O-])nc2O1,≤ 0.0625
10,C[C@]1(CN2CCc3nc(-c4ccc(F)cc4F)ccc3C2)Cn2cc([N+](=O)[O-])nc2O1,≤ 0.0625
11,C[C@]1(CN2CCc3nc(-c4cc(F)cc(Cl)c4)ccc3C2)Cn2cc([N+](=O)[O-])nc2O1,≤ 0.0625
12,C[C@]1(CN2CCc3nc(-c4cccc(Cl)c4F)ccc3C2)Cn2cc([N+](=O)[O-])nc2O1,≤ 0.0625
13,C[C@]1(CN2CCc3nc(-c4ccc(F)cc4)oc3C2)Cn2cc([N+](=O)[O-])nc2O1,0.25
14,C[C@]1(CN2CCc3nc(-c4cccc(F)c4)ccc3C2)Cn2cc([N+](=O)[O-])nc2O1,≤ 0.0625
15,C[C@]1(CN2CCc3nc(-c4cccc(F)c4F)ccc3C2)Cn2cc([N+](=O)[O-])nc2O1,≤ 0.0625
16,C[C@]1(CN2CCc3nc(-c4ccc(C(F)(F)F)cc4)ccc3C2)Cn2cc([N+](=O)[O-])nc2O1,≤ 0.0625
17,C[C@]1(CN2CCc3nc(C4CC4)ccc3C2)Cn2cc([N+](=O)[O-])nc2O1,0.5
18,C[C@]1(CN2CCc3nc(C4CCCCC4)ccc3C2)Cn2cc([N+](=O)[O-])nc2O1,0.25
19,C[C@]1(CN2CCc3nc(-c4ccc(F)c(F)c4)ccc3C2)Cn2cc([N+](=O)[O-])nc2O1,≤ 0.0625
20,C[C@]1(CN2CCc3nc(-c4ccc(F)cc4)sc3C2)Cn2cc([N+](=O)[O-])nc2O1,0.125
